Assay results published in patent US20050176655A1, “Novel macrolide derivatives havaing effect of potentiating antifungal activity” (priority 2002, published 2005).

Experiments:
Test in all cases: Paper disk method, enhancing action for activities of azole antifungal agents
Format in all cases: cell-based
[1] = tested on: Aspergillus niger ATCC 6275; details: 48 hours; for Inhibition activity (inhibition ring mm) A. niger ATCC 6275 GYF / Transparency of the inhibition ring A. niger ATCC 6275 GYF: fluconazole 10 μg/ml; for Inhibition activity (inhibition ring mm) A. niger ATCC 6275 GYM / Transparency of the inhibition ring A. niger ATCC 6275 GYM: miconazole 0.1 μg/ml; for Inhibition activity (inhibition ring mm) A. niger ATCC 6275 GY / Transparency of the inhibition ring A. niger ATCC 6275 GY: GY medium (control, no azole)
In short: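 Paper-disk assay on A. niger ATCC 6275 spores (0.2%) seeded on GY agar pH 6.0. After 48 h, inhibition-zone diameter recorded in mm and transparency graded A (transparent) to E (opaque).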

[2] = tested on: Candida albicans ATCC 64548; details: 24 hours; for Inhibition activity (inhibition ring mm) C. albicans ATCC 64548 GYM / Transparency of the inhibition ring C. albicans ATCC 64548 GYM: miconazole 0.03 μg/ml; for Inhibition activity (inhibition ring mm) C. albicans ATCC 64548 GYF / Transparency of the inhibition ring C. albicans ATCC 64548 GYF: fluconazole 0.5 μg/ml
In short: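 GY agar (pH 6.0) seeded with C. albicans ATCC 64548 precultured in Waksman broth at 27° C for 40 hours, supplemented with sub-growth-inhibitory miconazole 0.03 μg/ml or fluconazole 0.5 μg/ml. Paper disk method; inhibition-zone diameter (mm) read after 24 hours, transparency graded A–E.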

[3] = tested on: fluconazole resistant Candida albicans ATCC 64550; details: 24 hours; for Inhibition activity (inhibition ring mm) C. albicans ATCC 64550 GYF / Transparency of the inhibition ring C. albicans ATCC 64550 GYF: fluconazole 30 μg/ml; for Inhibition activity (inhibition ring mm) C. albicans ATCC 64550 GYM / Transparency of the inhibition ring C. albicans ATCC 64550 GYM: miconazole 0.15 μg/ml
Procedure: Test organisms used were Candida albicans ATCC 64548, fluconazole resistant Candida albicans ATCC 64550 and Aspergillus niger ATCC 6275. Candida spp. were cultured in Waksman broth (glucose 2.0%, peptone 0.5%, dry yeast 0.3%, meat extract 0.5%, NaCl 0.5% and CaCO3 0.3%, pH 7.0) at 27° C. for 40 hours, then 0.1% thereof was inoculated on GY agar medium (glucose 1.0%, yeast extract 0.5% and agar 0.8%, pH 6.0). Spore suspension 0.2% of Aspergillus niger ATCC 6275 was inoculated on GY agar medium.
Azole antifungal agents used were miconazole (Sigma Inc., the U.S.) and fluconazole (ICN Pharmaceuticals, Inc., the U.S.), and were added at concentrations without affecting growth on each test organisms follows.
Candida albicans ATCC 64550: miconazole 0.15 μg/ml or fluconazole 30 μg/ml.
In the above medium, a medium added with miconazole to GY medium (control) is designated as GYM, and a medium added with fluconazole is designated as GYF. Activities were assessed by means of paper disk method (thickness: 8 mm, ADVANTEC MFS INC., Japan). Diameter of inhibition ring is expressed with mm unit after culturing Candida spp. for 24 hours and Aspergillus niger ATCC 6275 for 48 hours. Transparency of the inhibition ring is assessed with 5 degrees of A, B, C, D and E (transparence<A<B<C<D<E<opaque).

SMILES | Inhibition activity (inhibition ring mm) A. niger ATCC 6275 GYF ([1]; 10 μg/8 mm disk) | Transparency of the inhibition ring A. niger ATCC 6275 GYF ([1]; 10 μg/8 mm disk) | Inhibition activity (inhibition ring mm) A. niger ATCC 6275 GYM ([1]; 10 μg/8 mm disk) | Transparency of the inhibition ring A. niger ATCC 6275 GYM ([1]; 10 μg/8 mm disk) | Inhibition activity (inhibition ring mm) A. niger ATCC 6275 GYF ([1]; 50 μg/8 mm disk) | Transparency of the inhibition ring A. niger ATCC 6275 GYF ([1]; 50 μg/8 mm disk) | Inhibition activity (inhibition ring mm) A. niger ATCC 6275 GYM ([1]; 50 μg/8 mm disk) | Transparency of the inhibition ring A. niger ATCC 6275 GYM ([1]; 50 μg/8 mm disk) | Inhibition activity (inhibition ring mm) C. albicans ATCC 64548 GYM ([2]; 10 μg/8 mm disk) | Transparency of the inhibition ring C. albicans ATCC 64548 GYM ([2]; 10 μg/8 mm disk) | Inhibition activity (inhibition ring mm) C. albicans ATCC 64548 GYF ([2]; 50 μg/8 mm disk) | Transparency of the inhibition ring C. albicans ATCC 64548 GYF ([2]; 50 μg/8 mm disk) | Inhibition activity (inhibition ring mm) C. albicans ATCC 64548 GYM ([2]; 50 μg/8 mm disk) | Transparency of the inhibition ring C. albicans ATCC 64548 GYM ([2]; 50 μg/8 mm disk) | Inhibition activity (inhibition ring mm) C. albicans ATCC 64550 GYF ([3]; 10 μg/8 mm disk) | Transparency of the inhibition ring C. albicans ATCC 64550 GYF ([3]; 10 μg/8 mm disk) | Inhibition activity (inhibition ring mm) C. albicans ATCC 64550 GYF ([3]; 50 μg/8 mm disk) | Transparency of the inhibition ring C. albicans ATCC 64550 GYF ([3]; 50 μg/8 mm disk) | Inhibition activity (inhibition ring mm) C. albicans ATCC 64550 GYM ([3]; 50 μg/8 mm disk) | Transparency of the inhibition ring C. albicans ATCC 64550 GYM ([3]; 50 μg/8 mm disk) | also measured
CCC(OC(=O)c1ccccc1)C(C)(O)C1OC(=O)C(C)C(OC2CC(C)(OC)C(OC(=O)c3ccccc3)C(C)O2)C(C)C(OC2OC(C)CC(N(C)C)C2OC(C)=O)C2(C)CC(C)=C(O2)C1C (centres unmarked) [Compound 773, 2′-O-acetyl-4″,13-Di-O-benzoyl-8,9-Anhydro-pseudoerythromycin A 6,9-hemiketal] | 10 mm | E (Growth of test organism was inhibited 35% or less.) | 13 mm | E (Growth of test organism was inhibited 35% or less.) | 15 mm | E (Growth of test organism was inhibited 35% or less.) | 15 mm | B (Growth of test organism was inhibited 75% of more and 95% or less.) | 13 mm | C (Growth of test organism was inhibited 55% or more and 75% or less.) | 12 mm | E (Growth of test organism was inhibited 35% or less.) | 16 mm | A (Growth of test organism was inhibited 95% or more.) | 11 mm | E (Growth of test organism was inhibited 35% or less.) | 15 mm | A (Growth of test organism was inhibited 95% or more.) | 14 mm | A (Growth of test organism was inhibited 95% or more.) | Inhibition activity (inhibition ring mm) C. albicans ATCC 64550 GYM ([3]; 10 μg/8 mm disk): 10 mm; Transparency of the inhibition ring C. albicans ATCC 64550 GYM ([3]; 10 μg/8 mm disk): C (Growth of test organism was inhibited 55% or more and 75% or less.)
CCC(=O)OC1C(C)OC(OC2C(C)C(=O)OC(C(C)(O)C(CC)OC(=O)CC)C(C)C3=C(C)CC(C)(O3)C(OC3OC(C)CC(N(C)C)C3O)C2C)CC1(C)OC (centres unmarked) [Compound 776, 4″,13-Di-O-propionyl-8,9-Anhydro-pseudo-erythromycin A 6,9-hemiketal] | 16 mm | E (Growth of test organism was inhibited 35% or less.) | – | – | 16 mm | E (Growth of test organism was inhibited 35% or less.) | 20 mm | C (Growth of test organism was inhibited 55% or more and 75% or less.) | – | – | – | – | 11 mm | D (Growth of test organism was inhibited 35% or more and 55% or less.) | – | – | 9 mm | E (Growth of test organism was inhibited 35% or less.) | 11 mm | E (Growth of test organism was inhibited 35% or less.) | Inhibition activity (inhibition ring mm) C. albicans ATCC 64548 GYF ([2]; 100 μg/8 mm disk): 15 mm; Transparency of the inhibition ring C. albicans ATCC 64548 GYF ([2]; 100 μg/8 mm disk): E (Growth of test organism was inhibited 35% or less.)
CCCCCC(=O)OC1C(C)OC(OC2C(C)C(=O)OC(C(C)(O)C(CC)OC(=O)CCCCC)C(C)C3=C(C)CC(C)(O3)C(OC3OC(C)CC(N(C)C)C3O)C2C)CC1(C)OC (centres unmarked) [Compound 777, 4″,13-Di-O-hexanoyl-8,9-Anhydro-pseudo-erythromycin A 6,9-hemiketal] | 11 mm | E (Growth of test organism was inhibited 35% or less.) | 11 mm | E (Growth of test organism was inhibited 35% or less.) | 17 mm | D (Growth of test organism was inhibited 35% or more and 55% or less.) | 13 mm | B (Growth of test organism was inhibited 75% of more and 95% or less.) | 11 mm | D (Growth of test organism was inhibited 35% or more and 55% or less.) | 11 mm | D (Growth of test organism was inhibited 35% or more and 55% or less.) | 14 mm | A (Growth of test organism was inhibited 95% or more.) | 11 mm | D (Growth of test organism was inhibited 35% or more and 55% or less.) | 14 mm | A (Growth of test organism was inhibited 95% or more.) | 14 mm | A (Growth of test organism was inhibited 95% or more.) | Inhibition activity (inhibition ring mm) A. niger ATCC 6275 GY ([1]; 50 μg/8 mm disk): 9 mm; Transparency of the inhibition ring A. niger ATCC 6275 GY ([1]; 50 μg/8 mm disk): E (Growth of test organism was inhibited 35% or less.)
CCC(OC(=O)c1ccccc1)C(C)(O)C1OC(=O)C(C)C(OC2CC(C)(OC)C(OC(=O)c3ccccc3)C(C)O2)C(C)C(OC2OC(C)CC(N(C)C)C2O)C2(C)CC(C)=C(O2)C1C (centres unmarked) [Compound 778, 4″,13-Di-O-benzoyl-8,9-Anhydro-pseudo-erythromycin A 6,9-hemiketal] | 12 mm | E (Growth of test organism was inhibited 35% or less.) | 14 mm | E (Growth of test organism was inhibited 35% or less.) | 13 mm | D (Growth of test organism was inhibited 35% or more and 55% or less.) | 16 mm | A (Growth of test organism was inhibited 95% or more.) | 12 mm | B (Growth of test organism was inhibited 75% of more and 95% or less.) | 9 mm | D (Growth of test organism was inhibited 35% or more and 55% or less.) | 16 mm | A (Growth of test organism was inhibited 95% or more.) | 10 mm | E (Growth of test organism was inhibited 35% or less.) | 13 mm | B (Growth of test organism was inhibited 75% of more and 95% or less.) | 14 mm | B (Growth of test organism was inhibited 75% of more and 95% or less.) | Inhibition activity (inhibition ring mm) A. niger ATCC 6275 GY ([1]; 50 μg/8 mm disk): 10 mm; Transparency of the inhibition ring A. niger ATCC 6275 GY ([1]; 50 μg/8 mm disk): E (Growth of test organism was inhibited 35% or less.)
